The NIST ThermoML archive (doi:10.1016/j.jct.2008.07.009)

Assay: xn = mol fraction of the nth substance listed
Conditions: 101 kPa, Liquid, Vibrating tube method

CC(=O)N1CCOCC1 [4-acetylmorpholine] + Cc1ccccc1
mass density [kg/m3]
Conditions | 293.15 K | 303.15 K | 313.15 K | 323.15 K | 333.15 K | 343.15 K
x2 = 0.0498 | 1104.1 | 1096.4 | 1087.8 | 1079.4 | 1071.2 | 1063.2
x2 = 0.0975 | 1094.3 | 1086.5 | 1077.8 | 1069.6 | 1061.4 | 1053.3
x2 = 0.1453 | 1084 | 1076.5 | 1068.2 | 1059.9 | 1051.6 | 1043.4
x2 = 0.2109 | 1070.1 | 1062.5 | 1054 | 1045.6 | 1036.8 | 1029.2
x2 = 0.2873 | 1053.3 | 1045.4 | 1037.1 | 1028.6 | 1020.2 | 1012
x2 = 0.3276 | 1044.3 | 1036.5 | 1028.1 | 1019.5 | 1011 | 1002.5
x2 = 0.3865 | 1030.8 | 1022.8 | 1014.6 | 1005.8 | 997.2 | 988.6
x2 = 0.4536 | 1015.1 | 1007 | 998.7 | 989.8 | 981.2 | 972.2
x2 = 0.4953 | 1005.1 | 996.9 | 988.7 | 979.7 | 970.8 | 962.1
x2 = 0.5235 | 998.4 | 990 | 981.7 | 972.7 | 964.1 | 954.5
x2 = 0.5641 | 988.2 | 979.8 | 971.6 | 962.5 | 953.8 | 944.9
x2 = 0.6033 | 978.3 | 969.9 | 961.7 | 952.5 | 943.8 | 935
x2 = 0.6844 | 957.3 | 949 | 940.7 | 931.5 | 922.7 | 913.9
x2 = 0.7562 | 937.8 | 929.6 | 921.3 | 912.1 | 903.2 | 894.7
x2 = 0.8126 | 922.2 | 913.7 | 905.5 | 896.2 | 887.4 | 879.3
x2 = 0.8843 | 901.8 | 893.2 | 885 | 875.6 | 866.8 | 857.9
x2 = 0.9225 | 890.5 | 881.8 | 873.5 | 864.1 | 855.3 | 846.4
x2 = 0.9832 | 872.3 | 863.3 | 855.2 | 845.9 | 837.1 | 828.2
